For one assay, the target named is T1, COX I (Homo sapiens, UniProt P23219).
T1 construct: made in house; baculovirus-infected insect cells by own knowledge of the cited Barnett et al. 1994
As to the kind of experiment: Inhibition of COX I in vitro (radiometric assay, 14C arachidonic acid, partially purified enzyme). The conditions noted are these: partially purified COX I, 20 micromolar arachidonic acid, 10 min preincubation, room temperature; read-out: COX I IC50. Format: biochemical. Here is the method: (§1) The COX I and COX II inhibitory activity of compounds of this invention in vitro was determined using partially purified COX I and COX II enzymes, prepared as described in J. Barnett et al., Biochim. Biophys. Acta, 1209:130--139 (1994).
(§2) COX I and COX II samples were diluted with Tris-HCl buffer (50 mM Tris-HCl pH 7.9) containing 2 mM EDTA and 10% glycerol and reconstituted by incubating first with 2 mM phenol for 5 minutes and then with 1 micromolar hematin for an additional 5 minutes. 125 μl of the reconstituted COX I or COX II enzyme were preincubated for 10 minutes at room temperature in a shaking water bath with the compounds of the invention dissolved in 2-15 μl of DMSO or the carrier vehicles (control samples). The enzyme reaction was initiated by adding 25 μl of 1-[14C] arachidonic acid (80,000-100,000 cpm/tube; 20 micromolar final concentration) and the reaction was allowed to continue for an additional 45 seconds. The reaction was terminated by adding 100 μl of 2N HCl and 750 μl water. An aliquot (950 μl) of the reaction mixture was loaded onto a 1 ml C18 Sep-Pak column (J. T. Baker, Phillipsburg, N.J.) which had been previously washed with 2-3 ml methanol and equilibrated with 5-6 ml distilled water. Oxygenated products were quantitatively eluted with 3 ml of acetonitrile/water/acetic acid (50:50:0.1, v/v) and the radioactivity in the eluate determined in a scintillation counter.

The next assay addresses T2, COX II (Homo sapiens, UniProt P35354).
T2 construct: made in house; baculovirus-infected insect cells by own knowledge of the cited Barnett et al. 1994
T2 sequence (P35354 18-604): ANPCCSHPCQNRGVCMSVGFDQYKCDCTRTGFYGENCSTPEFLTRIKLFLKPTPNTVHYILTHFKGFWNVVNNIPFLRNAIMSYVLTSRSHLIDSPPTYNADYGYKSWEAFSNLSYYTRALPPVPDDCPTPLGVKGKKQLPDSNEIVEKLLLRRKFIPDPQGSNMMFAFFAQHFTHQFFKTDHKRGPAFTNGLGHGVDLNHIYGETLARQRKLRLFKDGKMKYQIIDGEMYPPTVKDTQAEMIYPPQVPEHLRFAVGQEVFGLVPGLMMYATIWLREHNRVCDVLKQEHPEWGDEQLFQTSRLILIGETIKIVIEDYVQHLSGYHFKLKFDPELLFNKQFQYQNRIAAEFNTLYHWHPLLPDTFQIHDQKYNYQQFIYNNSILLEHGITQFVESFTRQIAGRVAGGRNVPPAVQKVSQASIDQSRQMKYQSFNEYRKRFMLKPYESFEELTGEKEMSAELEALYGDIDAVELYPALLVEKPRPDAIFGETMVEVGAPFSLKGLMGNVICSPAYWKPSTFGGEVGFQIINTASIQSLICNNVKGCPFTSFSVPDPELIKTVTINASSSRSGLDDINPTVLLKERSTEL
Kind of assay: Inhibition of COX II in vitro (radiometric assay, 14C arachidonic acid, partially purified enzyme). The assay is classed as biochemical. The conditions noted are these: partially purified COX II, 20 micromolar arachidonic acid, 10 min preincubation, room temperature; read-out: COX II IC50. As to the method: as §1, §2

pIC50: −log10 of the molar value.

The pIC50 is the negative decadic logarithm of the IC50, by convention in mol/L.

T1 sequence (P23219 24-599): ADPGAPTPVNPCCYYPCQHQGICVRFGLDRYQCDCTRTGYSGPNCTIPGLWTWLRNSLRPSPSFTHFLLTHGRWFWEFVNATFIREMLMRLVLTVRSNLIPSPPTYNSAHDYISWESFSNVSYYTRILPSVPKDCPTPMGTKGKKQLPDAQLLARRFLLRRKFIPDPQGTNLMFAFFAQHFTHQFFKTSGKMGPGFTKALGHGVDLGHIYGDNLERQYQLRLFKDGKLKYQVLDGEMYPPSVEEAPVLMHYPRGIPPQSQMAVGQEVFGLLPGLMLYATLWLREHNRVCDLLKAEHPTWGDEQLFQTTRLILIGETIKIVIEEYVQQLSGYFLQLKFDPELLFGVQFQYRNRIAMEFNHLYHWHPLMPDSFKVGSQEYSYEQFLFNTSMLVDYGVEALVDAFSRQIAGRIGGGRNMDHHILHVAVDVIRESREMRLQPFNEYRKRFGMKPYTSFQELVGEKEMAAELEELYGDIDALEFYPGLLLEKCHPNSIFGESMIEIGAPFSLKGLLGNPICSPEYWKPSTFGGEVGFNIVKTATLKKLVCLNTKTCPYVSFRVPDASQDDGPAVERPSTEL

Turning to `COc1ccc(C(=O)c2c(C)cc(Cc3ccc(NS(C)(=O)=O)cn3)n2C)cc1` [compound 289, N-{2-[5-(4-Methoxybenzoyl)-1,4-dimethyl-1H-pyrrol-2-ylmethyl]pyridin-5-yl}-methanesulfonamide], the negative logarithm of the IC50 (pIC50) was 4.99 on COX I and 5.82 on COX II.
The matching figures for `Cc1cc(C(C)c2ccc(NS(C)(=O)=O)cc2)n(C)c1C(=O)c1ccc(Cl)cc1` (stereo not shown) [compound 11, N-{4-[5-(4-Chlorobenzoyl)-1,4-dimethyl-1H-pyrrol-2-ylethan-1-yl]phenyl}-methanesulfonamide]: 5.12 and 6.29.
The matching figures for `COc1ccc(C(=O)c2ccc(Cc3ccc(NS(=O)(=O)CCO)cc3F)n2C)cc1` [compound 106, N-{3-Fluoro-4-[5-(4-methoxybenzoyl)-1-methyl-1H-pyrrol-2-ylmethyl]phenyl}-2-(hydroxy)ethanesulfonamide]: 6.02 and 7.15.
The like results for `Cc1cc(Cc2ccc(NS(=O)(=O)CCO)cn2)n(C)c1C(=O)c1ccc(Cl)cc1` [compound 267, N-{2-[5-(4-Chlorobenzoyl)-1,4-dimethyl-1H-pyrrol-2-ylmethyl]pyridin-5-yl}-2-(hydroxy)ethanesulfonamide] were, in that order, 3.68 and 6.15.
In the case of `Cc1ccc(C(=O)c2ccc(Cc3ncc(NS(C)(=O)=O)cc3Cl)n2C)cc1` [compound 276, N-{3-Chloro-2-[5-(4-methylbenzoyl)-1-methyl-1H-pyrrol-2-ylmethyl]pyridin-5-yl}-methanesulfonamide], the pIC50 was 4.22 on COX I and 6.30 on COX II.
Turning to `Cc1cc(Cc2ccc(NS(N)(=O)=O)cc2)n(C)c1C(=O)c1ccccc1` [compound 177, 1-{4-[5-benzoyl-1,4-dimethyl-1H-pyrrol-2-ylmethyl]phenyl}sulfamide], the pIC50 on COX I was 6.10; at COX II, 6.52.
On to `COc1ccc(C(=O)c2c(C)cc(Cc3ccc(NS(N)(=O)=O)cc3F)n2C)cc1` [compound 197, 1-{3-Fluoro-4-[5-(4-Methoxybenzoyl)-1,4-dimethyl-1H-pyrrol-2-ylmethyl]phenyl}-sulfamide], for which the figures for the pIC50 at COX I and on COX II were > 7.00 and 7.15, respectively.
For the molecule `Cc1cc(Cc2ccc(NS(=O)(=O)CCO)cc2F)n(C)c1C(=O)c1ccccc1` [compound 63, N-{3-Fluoro-4-[5-benzoyl-1,4-dimethyl-1H-pyrrol-2-ylmethyl]phenyl}-2-(hydroxy)-ethanesulfonamide], the results for the negative logarithm of the IC50 (pIC50) on COX I and on COX II were 7.46 and 6.48, respectively.
The matching figures for `Cc1cc(Cc2ccc(NC(=O)NCCCl)cn2)n(C)c1C(=O)c1ccc(Cl)cc1` [compound 310, 1-{2-[5-(4-Chlorobenzoyl)-1,4-dimethyl-1H-pyrrol-2-ylmethyl]pyridin-5-yl}-3-(2-chloro-ethyl)urea]: 3.85 and 5.04.
For the molecule `COc1ccc(C(=O)c2ccc3n2CCC3c2ccc(NS(N)(=O)=O)cc2Cl)cc1` (stereo not shown) [compound 223, 1-{3-Chloro-4-[5-(4-methoxybenzoyl)-1,2-dihydro-3H-pyrrolizin-1-yl]phenyl}sulfamide], the pIC50 on COX I is 7.19; at COX II, 7.54.
In the case of `Cc1ccc(C(=O)c2ccc(Cc3ccc(NS(C)(=O)=O)cc3Cl)n2C)cc1` [compound 31, N-{3-Chloro-4-[5-(4-methylbenzoyl)-1-methyl-1H-pyrrol-2-ylmethyl]phenyl}-methanesulfonamide], the pIC50 at COX I is 5.41; on COX II it was 7.35.
With `Cc1cc(Cc2ccc(NC=O)cn2)n(C)c1C(=O)c1ccc(Cl)cc1` [compound 330, N-{2-[5-(4-Chlorobenzoyl)-1,4-dimethyl-1H-pyrrol-2-ylmethyl]pyridin-5-yl}formamide], the values for the pIC50 at COX I and on COX II were 4.21 and 4.52, respectively.
With `Cc1cc(Cc2ccc(N)cn2)n(C)c1C(=O)c1ccc(Cl)cc1` [compound 333, {2-[5-(4-Chlorobenzoyl)-1,4-dimethyl-1H-pyrrol-2-ylmethyl]pyridin-5-yl}amine], the pIC50 on COX II was 4.11.
